Test results reported in patent publication US11970474B2, “Substituted benzodiazoles and use thereof in therapy” (THOMAS HELLEDAYS STIFTELSE FÖR MEDICINSK FORSKNING, priority 2018, dated 2024).

target: OGG1 (Homo sapiens (Human), UniProt O15527); test: In vitro OGG1 activity assay; type: biochemical; conditions: 800 pM OGG1 enzyme, 2 nM human APEX1, 10 nM 8-oxoA:C substrate
Procedure, shortened: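 Fluorescence-release assay on a duplex oligonucleotide carrying an OGG1 substrate base beside a fluorophore, quenched from the complementary strand. Excess APEX1 cleaves the abasic site left by base excision, melting the duplex and unquenching the fluorophore. Compounds in DMSO were dispensed before enzyme and substrate, and fluorescein signal was read.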

Sequence of OGG1 (O15527 whole entry): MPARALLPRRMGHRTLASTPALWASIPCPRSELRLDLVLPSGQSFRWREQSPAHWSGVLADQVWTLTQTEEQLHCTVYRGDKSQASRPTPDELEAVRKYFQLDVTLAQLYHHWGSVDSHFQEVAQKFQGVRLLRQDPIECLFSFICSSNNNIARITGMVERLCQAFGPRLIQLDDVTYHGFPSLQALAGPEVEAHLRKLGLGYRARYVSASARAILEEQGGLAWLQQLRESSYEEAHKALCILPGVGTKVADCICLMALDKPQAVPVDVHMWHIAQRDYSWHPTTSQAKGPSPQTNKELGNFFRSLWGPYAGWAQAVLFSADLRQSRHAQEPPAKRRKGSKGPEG

| Compound | IC50 |
| --- | --- |
| COc1cc(NC(=O)N2CCC(n3c(=O)[nH]c4c(-c5cccnc5)cccc43)CC2)ccc1Cl [Example 102, N-(4-chloro-3-methoxyphenyl)-4-[2-oxo-4-(pyridin-3-yl)-2,3-dihydro-1H-1,3-benzodiazol-1-yl]piperidine-1-carboxamide] | 2.77 µM |
| O=C(Nc1cnc(Cl)c(Cl)c1)N1CCC(n2c(=O)[nH]c3c(Br)cccc32)CC1 [Example 109, 4-(4-Bromo-2-oxo-2,3-dihydro-1H-1,3-benzodiazol-1-yl)-N-(5,6-dichloropyridin-3-yl)piperidine-1-carboxamide] | 6.46 µM |
| COC(=O)NC1CCN(c2cccc3c2[nH]c(=O)n3[C@H]2CC[C@@H](C(=O)Nc3ccc(C)c(OC)c3)CC2)C1 (stereo partly drawn) [Example 316, Methyl N-(1-{2-oxo-1-[cis-4-[(3-methoxy-4-methylphenyl)carbamoyl]cyclohexyl]-2,3-dihydro-1H-1,3-benzodiazol-4-yl}pyrrolidin-3-yl)carbamate] | 0.038 µM |
| COc1ccc(NC(=O)N2CCC(n3c(=O)[nH]c4c(-c5ccc(N)nc5)cccc43)CC2)cc1Cl [Example 99, 4-[4-(6-Aminopyridin-3-yl)-2-oxo-2,3-dihydro-1H-1,3-benzodiazol-1-yl]-N-(3-chloro-4-methoxyphenyl)piperidine-1-carboxamide] | 1.17 µM |
| COc1ccc(NC(=O)N2CCC(n3c(=O)[nH]c4c(N)cccc43)CC2)cc1Cl [Example 174, 4-(4-Amino-2-oxo-2,3-dihydro-1H-1,3-benzodiazol-1-yl)-N-(3-chloro-4-methoxyphenyl)piperidine-1-carboxamide] | 2.54 µM |
| COc1cc(NC(=O)[C@H]2CC[C@@H](n3c(=O)[nH]c4c(Br)cccc43)CC2)cc(C(F)(F)F)c1 [Example 158, (Cis)-4-(4-bromo-2-oxo-2,3-dihydro-1H-1,3-benzodiazol-1-yl)-N-[3-methoxy-5-(trifluoromethyl)phenyl]cyclohexane-1-carboxamide] | 6.05 µM |
| COc1cc(NC(=O)[C@H]2CC[C@@H](n3c(=O)[nH]c4c(Br)cccc43)CC2)cc(OC)c1OC [Example 193, Cis-4-(4-bromo-2-oxo-2,3-dihydro-1H-1,3-benzodiazol-1-yl)-N-(3,4,5-trimethoxyphenyl)cyclohexane-1-carboxamide] | 1.38 µM |
| COc1cc(Cl)cc(NC(=O)[C@H]2CC[C@@H](n3c(=O)[nH]c4c(Br)cccc43)CC2)c1 [Example 163, (Cis)-4-(4-bromo-2-oxo-2,3-dihydro-1H-1,3-benzodiazol-1-yl)-N-(3-chloro-5-methoxyphenyl)cyclohexane-1-carboxamide] | 3.16 µM |
| COc1ccc(NC(=O)N2CCC(n3c(=O)[nH]c4cc(C)ccc43)CC2)cc1Cl [Example 179, N-(3-Chloro-4-methoxyphenyl)-4-(5-methyl-2-oxo-2,3-dihydro-1H-1,3-benzodiazol-1-yl)piperidine-1-carboxamide] | 1.57 µM |
| CN(C)CCOc1ccc(-c2cccc3c2[nH]c(=O)n3C2CCN(C(=O)Nc3ccc(Cl)c(Cl)c3)CC2)cc1 [Example 36, N-(3,4-dichlorophenyl)-4-(4-{4-[2-(dimethylamino)ethoxy]phenyl}-2-oxo-2,3-dihydro-1H-1,3-benzodiazol-1-yl)piperidine-1-carboxamide] | 3.65 µM |
| Cc1cc(NC(=O)[C@H]2CC[C@@H](n3c(=O)[nH]c4c(Br)cccc43)CC2)no1 [Example 169, (Cis)-4-(4-bromo-2-oxo-2,3-dihydro-1H-1,3-benzodiazol-1-yl)-N-(5-methyl-1,2-oxazol-3-yl)cyclohexane-1-carboxamide] | 9.09 µM |

More lines, in order of falling IC50, values ahead:

| IC50 | Compound |
| --- | --- |
| 6.27 µM | Cc1nc2ccc(NC(=O)[C@H]3CC[C@@H](n4c(=O)[nH]c5c(Br)cccc54)CC3)cc2o1 [Example 203, Cis-4-(4-bromo-2-oxo-2,3-dihydro-1H-1,3-benzodiazol-1-yl)-N-(2-methyl-1,3-benzoxazol-6-yl)cyclohexane-1-carboxamide] |
| 2.94 µM | COc1ccc(-c2cccc3c2[nH]c(=O)n3C2CCN(C(=O)Nc3ccc(Cl)c(OC)c3)CC2)cn1 [Example 105, N-(4-chloro-3-methoxyphenyl)-4-[4-(6-methoxypyridin-3-yl)-2-oxo-2,3-dihydro-1H-1,3-benzodiazol-1-yl]piperidine-1-carboxamide] |
| 2.74 µM | O=c1[nH]c2c(Br)cccc2n1[C@H]1CC[C@@H](C(=O)Nc2ccc(OC(F)(F)F)c(Cl)c2)CC1 [Example 134, (Cis)-4-(4-bromo-2-oxo-2,3-dihydro-1H-1,3-benzodiazol-1-yl)-N-[3-chloro-4-(trifluoromethoxy)phenyl]cyclohexane-1-carboxamide] |
| 2.69 µM | COc1cc(NC(=O)[C@H]2CC[C@@H](n3c(=O)[nH]c4cc(CN)ccc43)CC2)ccc1C [Example 256, Cis-4-[5-(aminomethyl)-2-oxo-2,3-dihydro-1H-1,3-benzodiazol-1-yl]-N-(3-methoxy-4-methylphenyl)cyclohexane-1-carboxamide] |
| 2.62 µM | COc1ccc(NC(=O)N2CCC(n3c(=O)[nH]c4c(-c5cccnc5)cccc43)CC2)cc1Cl [Example 98, N-(3-chloro-4-methoxyphenyl)-4-[2-oxo-4-(pyridin-3-yl)-2,3-dihydro-1H-1,3-benzodiazol-1-yl]piperidine-1-carboxamide] |
| 0.647 µM | O=c1[nH]c2c(Br)cccc2n1[C@H]1CC[C@@H](C(=O)Nc2cccc(O)c2)CC1 [Example 196, Cis-4-(4-bromo-2-oxo-2,3-dihydro-1H-1,3-benzodiazol-1-yl)-N-(3-hydroxyphenyl)cyclohexane-1-carboxamide] |
| 0.0969 µM | COc1cc(NC(=O)[C@H]2CC[C@@H](n3c(=O)[nH]c4c(NCC(F)F)cccc43)CC2)ccc1C [Example 324, Cis-4-{4-[(2,2-difluoroethyl)amino]-2-oxo-2,3-dihydro-1H-1,3-benzodiazol-1-yl}-N-(3-methoxy-4-methylphenyl)cyclohexane-1-carboxamide] |
| 0.0745 µM | COc1cc(NC(=O)[C@H]2CC[C@@H](n3c(=O)[nH]c4c(Nc5ncccn5)cccc43)CC2)ccc1C [Example 279, Cis-N-(3-methoxy-4-methylphenyl)-4-{2-oxo-4-[(pyrimidin-2-yl)amino]-2,3-dihydro-1H-1,3-benzodiazol-1-yl}cyclohexane-1-carboxamide] |
| 0.023 µM | COc1cc(NC(=O)[C@H]2CC[C@@H](n3c(=O)[nH]c4c(NC(C)=O)cccc43)CC2)ccc1C [Example 288, Cis-4-(4-acetamido-2-oxo-2,3-dihydro-1H-1,3-benzodiazol-1-yl)-N-(3-methoxy-4-methylphenyl)cyclohexane-1-carboxamide] |
| 0.0203 µM | COc1cc(NC(=O)[C@H]2CC[C@@H](n3c(=O)[nH]c4c(NC(=O)c5cn(C)cn5)cccc43)CC2)ccc1C [Example 319, 1-Methyl-N-{2-oxo-1-[cis-4-[(3-methoxy-4-methylphenyl)carbamoyl]cyclohexyl]-2,3-dihydro-1H-1,3-benzodiazol-4-yl}-1H-imidazole-4-carboxamide] |
| 0.00142 µM | COc1cc(NC(=O)[C@H]2CC[C@@H](n3c(=O)[nH]c4c(C(=O)NC5CNC5)cccc43)CC2)ccc1C [Example 293, N-(Azetidin-3-yl)-2-oxo-1-[cis-4-[(3-methoxy-4-methylphenyl)carbamoyl]cyclohexyl]-2,3-dihydro-1H-1,3-benzodiazole-4-carboxamide] |
